Measured values taken from patent US20100240683A1, “COMBINATION THERAPY, COMPOSITION AND METHODS FOR THE TREATMENT OF CARDIOVASCULAR DISORDERS” (Syndromex Ltd., priority 2007, published 2010).
Each block holds one compound with its values, some of them ahead of it.

Columns and labels:
CYP2C8 [1] = molecular target: T1, CYP2C8 (Homo sapiens, UniProt P10632); test: in vitro
T1 sequence (P10632 1-490): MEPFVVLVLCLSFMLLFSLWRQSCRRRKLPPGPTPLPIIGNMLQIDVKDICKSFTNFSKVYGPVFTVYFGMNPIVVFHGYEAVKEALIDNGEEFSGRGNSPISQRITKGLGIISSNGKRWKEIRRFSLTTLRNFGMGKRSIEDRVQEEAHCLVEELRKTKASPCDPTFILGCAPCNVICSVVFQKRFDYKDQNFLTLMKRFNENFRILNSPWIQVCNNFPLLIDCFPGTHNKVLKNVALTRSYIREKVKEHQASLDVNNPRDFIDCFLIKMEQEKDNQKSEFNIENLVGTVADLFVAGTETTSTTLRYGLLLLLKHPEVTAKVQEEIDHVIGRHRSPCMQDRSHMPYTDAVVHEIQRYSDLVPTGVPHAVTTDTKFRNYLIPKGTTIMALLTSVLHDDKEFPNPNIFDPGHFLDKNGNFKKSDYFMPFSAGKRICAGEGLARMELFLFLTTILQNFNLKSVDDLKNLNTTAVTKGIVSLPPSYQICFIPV

CYP2C19 [2] = molecular target: T2, CYP2C19 (Homo sapiens, UniProt P33261); test: in vitro
CYP3A4 [3] = molecular target: T3, CYP3A4 (Homo sapiens, UniProt P08684); test: Fluorimetric CYP inhibition assay, CYP3A4 (substrates BFC, BQ, DBF)
CYP2C19 [4] = molecular target: T2, CYP2C19; test: Fluorimetric CYP inhibition assay, CYP2C19-CEC
CYP3A4 [5] = molecular target: T3, CYP3A4; test: in vitro
CYP2C8 [6] = molecular target: T1, CYP2C8; test: biochemical
CYP1A2 [7] = molecular target: T4, CYP1A2 (Homo sapiens, UniProt P05177); test: Fluorimetric CYP inhibition assay, CYP1A2-CEC
T4 sequence (P05177 1-516): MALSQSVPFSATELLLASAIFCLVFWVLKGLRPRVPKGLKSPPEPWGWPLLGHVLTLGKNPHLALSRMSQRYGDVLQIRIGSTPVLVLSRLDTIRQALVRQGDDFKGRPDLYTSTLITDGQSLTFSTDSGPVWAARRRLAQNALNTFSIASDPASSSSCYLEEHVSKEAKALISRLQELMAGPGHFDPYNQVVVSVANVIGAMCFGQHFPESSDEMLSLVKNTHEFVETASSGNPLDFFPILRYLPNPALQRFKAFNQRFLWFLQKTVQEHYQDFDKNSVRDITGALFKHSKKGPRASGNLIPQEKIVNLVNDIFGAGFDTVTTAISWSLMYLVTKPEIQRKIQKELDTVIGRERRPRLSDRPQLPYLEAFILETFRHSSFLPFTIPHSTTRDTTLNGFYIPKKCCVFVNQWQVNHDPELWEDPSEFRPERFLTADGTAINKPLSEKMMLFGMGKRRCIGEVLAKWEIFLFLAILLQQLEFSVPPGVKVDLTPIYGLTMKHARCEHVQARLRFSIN

CYP2D6 [8] = molecular target: T5, CYP2D6 (Homo sapiens, UniProt P10635); test: Fluorimetric CYP inhibition assay, CYP2D6-AMMC
CYP1A2 [9] = molecular target: T4, CYP1A2; test: in vitro
CYP2D6 [10] = molecular target: T5, CYP2D6; test: in vitro

T2 sequence (P33261 whole entry): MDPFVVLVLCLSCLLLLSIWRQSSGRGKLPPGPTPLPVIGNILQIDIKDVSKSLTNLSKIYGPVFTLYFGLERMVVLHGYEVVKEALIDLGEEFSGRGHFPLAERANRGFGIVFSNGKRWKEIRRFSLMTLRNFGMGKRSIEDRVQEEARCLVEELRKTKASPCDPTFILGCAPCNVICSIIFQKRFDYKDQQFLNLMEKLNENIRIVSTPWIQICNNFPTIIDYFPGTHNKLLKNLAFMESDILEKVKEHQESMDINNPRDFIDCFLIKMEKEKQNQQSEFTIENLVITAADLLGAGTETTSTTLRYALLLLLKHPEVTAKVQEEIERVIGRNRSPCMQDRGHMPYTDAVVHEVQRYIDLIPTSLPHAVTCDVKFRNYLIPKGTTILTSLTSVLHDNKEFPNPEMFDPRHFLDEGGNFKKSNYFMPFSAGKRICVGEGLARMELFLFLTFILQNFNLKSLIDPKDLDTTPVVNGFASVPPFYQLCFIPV
T3 sequence (P08684 whole entry): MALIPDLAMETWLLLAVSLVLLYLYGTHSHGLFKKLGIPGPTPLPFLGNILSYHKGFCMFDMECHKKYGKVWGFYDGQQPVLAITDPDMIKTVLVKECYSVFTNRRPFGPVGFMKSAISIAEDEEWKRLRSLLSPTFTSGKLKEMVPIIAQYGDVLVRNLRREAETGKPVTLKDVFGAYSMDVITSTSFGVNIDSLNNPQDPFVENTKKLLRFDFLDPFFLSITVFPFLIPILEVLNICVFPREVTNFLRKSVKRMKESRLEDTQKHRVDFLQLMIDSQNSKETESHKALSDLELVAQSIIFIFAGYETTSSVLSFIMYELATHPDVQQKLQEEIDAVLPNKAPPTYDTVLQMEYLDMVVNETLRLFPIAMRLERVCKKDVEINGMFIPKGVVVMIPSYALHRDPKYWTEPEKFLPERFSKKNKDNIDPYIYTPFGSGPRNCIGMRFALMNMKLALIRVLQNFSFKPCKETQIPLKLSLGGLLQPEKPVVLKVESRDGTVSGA
T5 sequence (P10635 whole entry): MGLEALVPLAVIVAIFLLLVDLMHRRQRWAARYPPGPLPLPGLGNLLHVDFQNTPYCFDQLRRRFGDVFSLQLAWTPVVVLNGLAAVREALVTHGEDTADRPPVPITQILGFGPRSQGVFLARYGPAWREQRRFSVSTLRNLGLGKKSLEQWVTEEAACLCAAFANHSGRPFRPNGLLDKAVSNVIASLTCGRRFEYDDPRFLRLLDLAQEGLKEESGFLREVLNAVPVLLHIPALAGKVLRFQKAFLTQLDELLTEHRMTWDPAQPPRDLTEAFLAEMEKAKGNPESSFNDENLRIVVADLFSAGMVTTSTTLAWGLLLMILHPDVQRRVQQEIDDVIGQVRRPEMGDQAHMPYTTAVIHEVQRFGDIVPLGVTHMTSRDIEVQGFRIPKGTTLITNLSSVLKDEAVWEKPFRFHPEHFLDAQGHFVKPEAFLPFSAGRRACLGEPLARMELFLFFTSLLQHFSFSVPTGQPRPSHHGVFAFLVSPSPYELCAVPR

inhibition at 0.05 μM (CYP2C8 [1]; % Inhibition (set 1)): 0%
inhibition at 0.41 μM (CYP2C8 [1]; % Inhibition (set 1)): 1%
inhibition at 1.23 μM (CYP2C8 [1]; % Inhibition (set 1)): 0%
inhibition at 3.7 μM (CYP2C8 [1]; % Inhibition (set 1)): 4%
inhibition at 11.11 μM (CYP2C8 [1]; % Inhibition (set 1)): 13%
inhibition at 33.33 μM (CYP2C8 [1]; % Inhibition (set 1)): 23%
inhibition at 100 μM (CYP2C8 [1]; % Inhibition (set 1)): 43%
inhibition at 0.05 μM (CYP2C8 [1]; % Inhibition (set 2)): 0%
inhibition at 0.41 μM (CYP2C8 [1]; % Inhibition (set 2)): 0%
inhibition at 1.23 μM (CYP2C8 [1]; % Inhibition (set 2)): 0%
inhibition at 3.7 μM (CYP2C8 [1]; % Inhibition (set 2)): 0%
inhibition at 11.11 μM (CYP2C8 [1]; % Inhibition (set 2)): 0%
inhibition at 33.33 μM (CYP2C8 [1]; % Inhibition (set 2)): 15%
inhibition at 100 μM (CYP2C8 [1]; % Inhibition (set 2)): 38%
inhibition at 0.05 μM (CYP2C19 [2]; % Inhibition (set 1)): 0%
inhibition at 0.41 μM (CYP2C19 [2]; % Inhibition (set 1)): 0%
inhibition at 1.23 μM (CYP2C19 [2]; % Inhibition (set 1)): 0%
inhibition at 3.7 μM (CYP2C19 [2]; % Inhibition (set 1)): 0%
inhibition at 11.11 μM (CYP2C19 [2]; % Inhibition (set 1)): 3%
inhibition at 33.33 μM (CYP2C19 [2]; % Inhibition (set 1)): 57%
inhibition at 100 μM (CYP2C19 [2]; % Inhibition (set 1)): 63%
inhibition at 0.05 μM (CYP2C19 [2]; % Inhibition (set 2)): 1%
inhibition at 0.41 μM (CYP2C19 [2]; % Inhibition (set 2)): 2%
inhibition at 1.23 μM (CYP2C19 [2]; % Inhibition (set 2)): 4%
inhibition at 3.7 μM (CYP2C19 [2]; % Inhibition (set 2)): 4%
inhibition at 11.11 μM (CYP2C19 [2]; % Inhibition (set 2)): 12%
inhibition at 33.33 μM (CYP2C19 [2]; % Inhibition (set 2)): 43%
inhibition at 100 μM (CYP2C19 [2]; % Inhibition (set 2)): 70%
IC50 (CYP3A4 [3]): > 100 µM
IC50 (CYP2C19 [4]): 46 µM
inhibition at 0.41 μM (CYP3A4 [5]; % Inhibition (set 1)): 3%
inhibition at 100 μM (CYP3A4 [5]; % Inhibition (set 1)): 23%
inhibition at 1.23 μM (CYP3A4 [5]; % Inhibition (set 2)): 0%
inhibition at 3.7 μM (CYP3A4 [5]; % Inhibition (set 2)): 0%
inhibition at 100 μM (CYP3A4 [5]; % Inhibition (set 2)): 19%
IC50 (CYP2C8 [6]): > 100 µM
IC50 (CYP1A2 [7]): > 100 µM
IC50 (CYP2D6 [8]): > 100 µM
inhibition at 0.05 μM (CYP1A2 [9]; % Inhibition (set 1)): 0%
inhibition at 0.41 μM (CYP1A2 [9]; % Inhibition (set 1)): 6%
inhibition at 1.23 μM (CYP1A2 [9]; % Inhibition (set 1)): 0%
inhibition at 3.7 μM (CYP1A2 [9]; % Inhibition (set 1)): 9%
inhibition at 11.11 μM (CYP1A2 [9]; % Inhibition (set 1)): 5%
inhibition at 33.33 μM (CYP1A2 [9]; % Inhibition (set 1)): 7%
inhibition at 100 μM (CYP1A2 [9]; % Inhibition (set 1)): 8%
inhibition at 0.05 μM (CYP1A2 [9]; % Inhibition (set 2)): 0%
inhibition at 0.41 μM (CYP1A2 [9]; % Inhibition (set 2)): 3%
inhibition at 1.23 μM (CYP1A2 [9]; % Inhibition (set 2)): 1%
inhibition at 3.7 μM (CYP1A2 [9]; % Inhibition (set 2)): 5%
inhibition at 11.11 μM (CYP1A2 [9]; % Inhibition (set 2)): 6%
inhibition at 33.33 μM (CYP1A2 [9]; % Inhibition (set 2)): 4%
inhibition at 100 μM (CYP1A2 [9]; % Inhibition (set 2)): 9%
inhibition at 0.05 μM (CYP2D6 [10]; % Inhibition (set 1)): 0%
inhibition at 0.41 μM (CYP2D6 [10]; % Inhibition (set 1)): 0%
inhibition at 1.23 μM (CYP2D6 [10]; % Inhibition (set 1)): 0%
inhibition at 3.7 μM (CYP2D6 [10]; % Inhibition (set 1)): 0%
inhibition at 11.11 μM (CYP2D6 [10]; % Inhibition (set 1)): 3%
inhibition at 33.33 μM (CYP2D6 [10]; % Inhibition (set 1)): 11%
inhibition at 100 μM (CYP2D6 [10]; % Inhibition (set 1)): 7%
inhibition at 0.05 μM (CYP2D6 [10]; % Inhibition (set 2)): 0%
inhibition at 0.41 μM (CYP2D6 [10]; % Inhibition (set 2)): 0%
inhibition at 1.23 μM (CYP2D6 [10]; % Inhibition (set 2)): 0%
inhibition at 3.7 μM (CYP2D6 [10]; % Inhibition (set 2)): 0%
inhibition at 11.11 μM (CYP2D6 [10]; % Inhibition (set 2)): 2%
inhibition at 33.33 μM (CYP2D6 [10]; % Inhibition (set 2)): 15%
inhibition at 100 μM (CYP2D6 [10]; % Inhibition (set 2)): 0%
Structure (SMILES): CC(C)(CCCCCCCCCCCCC(C)(C)C(=O)O)C(=O)O [M16αα, 2,2,15,15-tetramethylhexadecane-1,16-dioic acid]

inhibition at 0.05 μM (CYP2C8 [1]; % Inhibition (set 1)): 8%
inhibition at 0.41 μM (CYP2C8 [1]; % Inhibition (set 1)): 7%
inhibition at 1.23 μM (CYP2C8 [1]; % Inhibition (set 1)): 4%
inhibition at 3.7 μM (CYP2C8 [1]; % Inhibition (set 1)): 7%
inhibition at 11.11 μM (CYP2C8 [1]; % Inhibition (set 1)): 15%
inhibition at 33.33 μM (CYP2C8 [1]; % Inhibition (set 1)): 22%
inhibition at 100 μM (CYP2C8 [1]; % Inhibition (set 1)): 46%
inhibition at 0.05 μM (CYP2C8 [1]; % Inhibition (set 2)): 0%
inhibition at 0.41 μM (CYP2C8 [1]; % Inhibition (set 2)): 0%
inhibition at 1.23 μM (CYP2C8 [1]; % Inhibition (set 2)): 0%
inhibition at 3.7 μM (CYP2C8 [1]; % Inhibition (set 2)): 0%
inhibition at 11.11 μM (CYP2C8 [1]; % Inhibition (set 2)): 9%
inhibition at 33.33 μM (CYP2C8 [1]; % Inhibition (set 2)): 23%
inhibition at 100 μM (CYP2C8 [1]; % Inhibition (set 2)): 46%
inhibition at 0.05 μM (CYP2C19 [2]; % Inhibition (set 1)): 0%
inhibition at 0.41 μM (CYP2C19 [2]; % Inhibition (set 1)): 5%
inhibition at 1.23 μM (CYP2C19 [2]; % Inhibition (set 1)): 4%
inhibition at 3.7 μM (CYP2C19 [2]; % Inhibition (set 1)): 0%
inhibition at 11.11 μM (CYP2C19 [2]; % Inhibition (set 1)): 0%
inhibition at 33.33 μM (CYP2C19 [2]; % Inhibition (set 1)): 1%
inhibition at 100 μM (CYP2C19 [2]; % Inhibition (set 1)): 21%
inhibition at 0.05 μM (CYP2C19 [2]; % Inhibition (set 2)): 0%
inhibition at 0.41 μM (CYP2C19 [2]; % Inhibition (set 2)): 1%
inhibition at 1.23 μM (CYP2C19 [2]; % Inhibition (set 2)): 0%
inhibition at 3.7 μM (CYP2C19 [2]; % Inhibition (set 2)): 0%
inhibition at 11.11 μM (CYP2C19 [2]; % Inhibition (set 2)): 0%
inhibition at 33.33 μM (CYP2C19 [2]; % Inhibition (set 2)): 1%
inhibition at 100 μM (CYP2C19 [2]; % Inhibition (set 2)): 7%
IC50 (CYP3A4 [3]): > 100 µM
IC50 (CYP2C19 [4]): > 100 µM
inhibition at 0.05 μM (CYP3A4 [5]; % Inhibition (set 1)): 0%
inhibition at 0.41 μM (CYP3A4 [5]; % Inhibition (set 1)): 0%
inhibition at 0.41 μM (CYP3A4 [5]; % Inhibition (set 2)): 0%
inhibition at 100 μM (CYP3A4 [5]; % Inhibition (set 2)): 15%
IC50 (CYP2C8 [6]): > 100 µM
IC50 (CYP1A2 [7]): > 100 µM
IC50 (CYP2D6 [8]): > 100 µM
inhibition at 0.05 μM (CYP1A2 [9]; % Inhibition (set 1)): 0%
inhibition at 0.41 μM (CYP1A2 [9]; % Inhibition (set 1)): 0%
inhibition at 1.23 μM (CYP1A2 [9]; % Inhibition (set 1)): 0%
inhibition at 3.7 μM (CYP1A2 [9]; % Inhibition (set 1)): 0%
inhibition at 11.11 μM (CYP1A2 [9]; % Inhibition (set 1)): 4%
inhibition at 33.33 μM (CYP1A2 [9]; % Inhibition (set 1)): 3%
inhibition at 100 μM (CYP1A2 [9]; % Inhibition (set 1)): 1%
inhibition at 0.05 μM (CYP1A2 [9]; % Inhibition (set 2)): 0%
inhibition at 0.41 μM (CYP1A2 [9]; % Inhibition (set 2)): 0%
inhibition at 1.23 μM (CYP1A2 [9]; % Inhibition (set 2)): 0%
inhibition at 3.7 μM (CYP1A2 [9]; % Inhibition (set 2)): 0%
inhibition at 11.11 μM (CYP1A2 [9]; % Inhibition (set 2)): 0%
inhibition at 33.33 μM (CYP1A2 [9]; % Inhibition (set 2)): 1%
inhibition at 100 μM (CYP1A2 [9]; % Inhibition (set 2)): 4%
inhibition at 0.05 μM (CYP2D6 [10]; % Inhibition (set 1)): 0%
inhibition at 0.41 μM (CYP2D6 [10]; % Inhibition (set 1)): 0%
inhibition at 1.23 μM (CYP2D6 [10]; % Inhibition (set 1)): 0%
inhibition at 3.7 μM (CYP2D6 [10]; % Inhibition (set 1)): 0%
inhibition at 11.11 μM (CYP2D6 [10]; % Inhibition (set 1)): 10%
inhibition at 33.33 μM (CYP2D6 [10]; % Inhibition (set 1)): 17%
inhibition at 100 μM (CYP2D6 [10]; % Inhibition (set 1)): 10%
inhibition at 0.05 μM (CYP2D6 [10]; % Inhibition (set 2)): 0%
inhibition at 0.41 μM (CYP2D6 [10]; % Inhibition (set 2)): 0%
inhibition at 1.23 μM (CYP2D6 [10]; % Inhibition (set 2)): 0%
inhibition at 3.7 μM (CYP2D6 [10]; % Inhibition (set 2)): 1%
inhibition at 11.11 μM (CYP2D6 [10]; % Inhibition (set 2)): 6%
inhibition at 33.33 μM (CYP2D6 [10]; % Inhibition (set 2)): 14%
inhibition at 100 μM (CYP2D6 [10]; % Inhibition (set 2)): 19%
Structure (SMILES): CC(C)(CCCCCCCCCCC(C)(C)CC(=O)O)CC(=O)O [M16ββ, 3,3,14,14-tetramethylhexadecane-1,16-dioic acid]
